Measurements taken from ChEMBL document CHEMBL4033765, “Synthesis and Evaluation of a Linkable Functional Group-Equipped Analogue of the Epothilones” (2017).

How the values were obtained:
A549 = experiment: Growth inhibition of human A549 cells after 4 days by SRB assay; type: functional; details: A549, 96 h
PC-3 = experiment: Growth inhibition of human PC3 cells after 4 days by SRB assay; type: functional; details: PC-3, 96 h

SMILES | GI50 (A549) [nM] | GI50 (PC-3) [nM]
CC(=O)NCCCC[C@H]1C(=O)C(C)(C)[C@@H](O)CC(=O)O[C@H](/C(C)=C/c2csc(C)n2)C[C@@H]2O[C@]2(C)CCC[C@H](C)[C@@H]1O | 1 | 2
COCCOCCC(=O)NCCCC[C@H]1C(=O)C(C)(C)[C@@H](O)CC(=O)O[C@H](/C(C)=C/c2csc(C)n2)C[C@@H]2O[C@]2(C)CCC[C@H](C)[C@@H]1O | 0.9 | 1.9
CC(=O)O[C@H]1C(=O)[C@@]2(C)[C@H]([C@H](OC(=O)c3ccccc3)[C@]3(O)C[C@H](OC(=O)[C@H](O)[C@@H](NC(=O)c4ccccc4)c4ccccc4)C(C)=C1C3(C)C)[C@]1(OC(C)=O)CO[C@@H]1C[C@@H]2O [PACLITAXEL] | 3.7 | 5.8
C/C(=C\c1csc(C)n1)[C@@H]1C[C@@H]2O[C@]2(C)CCC[C@H](C)[C@H](O)[C@@H](C)C(=O)C(C)(C)[C@@H](O)CC(=O)O1 [PATUPILONE] | 0.7 | 1.7
